This note sets out measurements from the NIST ThermoML archive (doi:10.1016/j.fluid.2006.07.011).

± gives the expanded uncertainty stated by the source.

The nature of the first data set: Boiling temperature at pressure P. The conditions noted are these: 101.33 kPa; Liquid; Distillation.
Take `CCC(=O)O` [propanoic acid]: the “Boiling temperature at pressure P” value was 141.00 ± 0.5 °C.
For `CC(=O)O` [acetic acid], the “Boiling temperature at pressure P” value was found to be 117.70 ± 0.5 °C.
For the molecule `CC(C)c1ccccc1` [isopropylbenzene], the “Boiling temperature at pressure P” value turned out to be 152.39 ± 0.5 °C.
For `O=CO` [formic acid], the “Boiling temperature at pressure P” value was determined as 109.90 ± 2 °C.

A short description of the next data set: refractive index (Na D-line) (dimensionless). The conditions noted are these: 293.15 K; 101.33 kPa; Liquid; Standard Abbe refractometry.
For `CCC(=O)O` [propanoic acid], the refractive index was determined as 1.3811 ± 0.0008.
The same measure, in the same setting: next, `CC(=O)O` [acetic acid]: 1.3721 ± 0.0007; `CC(C)c1ccccc1` [isopropylbenzene]: 1.4913 ± 0.0008.
With `O=CO` [formic acid], the refractive index turned out to be 1.3711 ± 0.0008.

Test in another data set: not given
To be noted: 293.15 K; 101.33 kPa; Liquid.
For the molecule `O=CO` [formic acid], the mass density stood at 1218.5 ± 2.5 kg/m3.

Staying with this data set, now noted: 298.15 K; 101.33 kPa; Liquid.
For the molecule `CCC(=O)O` [propanoic acid], the mass density is 988 ± 0.53 kg/m3.
As to `CC(=O)O` [acetic acid], the mass density is on record as 1044.3 ± 0.26 kg/m3.
The same measure, in the same setting: the same measure for `CC(C)c1ccccc1` [isopropylbenzene]: 863.75 ± 0.85 kg/m3.

One may read the refractive index as the speed of light in vacuum divided by its phase velocity in the sample. By mass density is commonly meant the mass of a sample divided by its volume.
